The target of the experiment is T1, human Oxytocin (hOT) receptor (Homo sapiens, UniProt P30559).
T1 construct: expressed in transfected cells; host or cells: HEK293EBNA
T1 sequence (P30559 1-389): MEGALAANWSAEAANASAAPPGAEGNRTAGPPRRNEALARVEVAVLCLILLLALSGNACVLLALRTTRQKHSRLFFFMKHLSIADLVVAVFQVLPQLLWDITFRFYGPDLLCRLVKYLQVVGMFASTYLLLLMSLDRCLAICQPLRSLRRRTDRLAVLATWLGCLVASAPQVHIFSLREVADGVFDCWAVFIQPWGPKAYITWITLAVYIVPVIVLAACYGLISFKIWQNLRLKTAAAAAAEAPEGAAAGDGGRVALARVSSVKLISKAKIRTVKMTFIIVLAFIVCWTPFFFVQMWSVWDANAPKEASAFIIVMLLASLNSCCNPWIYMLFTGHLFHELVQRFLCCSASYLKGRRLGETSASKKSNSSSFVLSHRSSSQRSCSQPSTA
The experiment is described as follows: In vitro competition binding assay on hOT receptor with scintillation proximity assay ([125I]-OVTA). To be noted: HEK293EBNA membranes expressing hOT receptor, 0.2 nM [125I]-OVTA, SPA; read-out: Binding affinity human OT-R IC50. The procedure: a) In Vitro Competition Binding Assay on hOT Receptor with Scintillation Proximity Assay (see Cook, N. D. et al. Pharmaceutical Manufacturing International 1992; p.49–53)
This assay allows to determine the affinity of the test compounds for the human Oxytocin (hOT) receptor. Membranes from HEK293EBNA (cells expressing the hOT receptor) were suspended in buffer containing 50 mM Tris-HCl, pH 7.4, 5 mM MgCl2 and 0.1% BSA (w/v). The membranes (2–4 μg) were mixed with 0.1 mg SPA bead coated with wheat-germ aglutinin (WGA-PVT-Polyethylene Imine beads from Amersham) and 0.2 nM of the radiolabelled [^125I]-OVTA (OVTA being Ornithin Vasoactive, an analogue of OT for competitive binding experiments). Non-specific binding was determined in the presence of 1 μM Oxytocin. The total assay volume was 100 μl. The plates (Corning® NBS plate) were incubated at room temperature for 30 min and counted on a Mibrobeta® plate scintillation counter. Competitive binding was performed in presence of compounds of formula (I) at the following concentrations: 30 μM, 10 μM, 1 μM, 300 nM, 100 nM, 10 nM, 1 nM, 100 pM, 10 pM. The competitive binding data were analysed using the iterative, nonlinear, curve-fitting program, “Prism” (GraphPad Software, Inc).
The ability of the pyrrolidine derivatives of formula (I) to inhibit the binding of ^125I-OVTA to the OT-receptor was assessed using the above described in vitro biological assay. Representative values for some example compounds are given in Table 1, where the binding affinity of the compounds is expressed by the IC50 (μM) which is the concentration upon which 50% inhibition of OT-R is achieved. From these values, it can be derived that said test compounds according to formula (I) do show a significant binding to the oxytocin receptor.
(In general: Scintillation proximity formats need no separation of bound from free tracer.)

As usually defined, the IC50 is the midpoint of a concentration-inhibition curve. In the case of `CON=C1C[C@@H](C(=O)OC)N(C(=O)c2ccc(-c3ccccc3)cc2)C1` (mixture of isomers) [Methyl (2S,4EZ)-1-([1,1′-biphenyl]-4-ylcarbonyl)-4-(methoxyimino)-2-pyrrolidinecarboxylate], the IC50 amounted to 45 nM. As for `CON=C1C[C@@H](C(=O)OC)N(C(=O)c2ccc(-c3ccccc3F)cc2)C1` (mixture of isomers) [Methyl (2S,4EZ)-4-(methoxyimino)-1-[(2′-fluoro[1,1′-biphenyl]-4-yl)carbonyl]-2-pyrrolidinecarboxylate], the figure is 100 nM. With `CON=C1C[C@@H](C(=O)OC)N(C(=O)c2ccc(-c3ccccc3C)cc2)C1` [Methyl (2S,4EZ)-4-(methoxyimino)-1-[(2′-methyl[1,1′-biphenyl]-4-yl)carbonyl]-2-pyrrolidinecarboxylate] the figure was 28 nM.
